Results published in paper PMC3319082 (Bioorganic & medicinal chemistry letters, 2011).

Biological target: rat mGlu4 (Rattus norvegicus, UniProt P31423)
Assay type: cell-based
Settings: rat mGlu4/GIRK cells, Fig. 2

Chain of rat mGlu4 (P31423 33-912): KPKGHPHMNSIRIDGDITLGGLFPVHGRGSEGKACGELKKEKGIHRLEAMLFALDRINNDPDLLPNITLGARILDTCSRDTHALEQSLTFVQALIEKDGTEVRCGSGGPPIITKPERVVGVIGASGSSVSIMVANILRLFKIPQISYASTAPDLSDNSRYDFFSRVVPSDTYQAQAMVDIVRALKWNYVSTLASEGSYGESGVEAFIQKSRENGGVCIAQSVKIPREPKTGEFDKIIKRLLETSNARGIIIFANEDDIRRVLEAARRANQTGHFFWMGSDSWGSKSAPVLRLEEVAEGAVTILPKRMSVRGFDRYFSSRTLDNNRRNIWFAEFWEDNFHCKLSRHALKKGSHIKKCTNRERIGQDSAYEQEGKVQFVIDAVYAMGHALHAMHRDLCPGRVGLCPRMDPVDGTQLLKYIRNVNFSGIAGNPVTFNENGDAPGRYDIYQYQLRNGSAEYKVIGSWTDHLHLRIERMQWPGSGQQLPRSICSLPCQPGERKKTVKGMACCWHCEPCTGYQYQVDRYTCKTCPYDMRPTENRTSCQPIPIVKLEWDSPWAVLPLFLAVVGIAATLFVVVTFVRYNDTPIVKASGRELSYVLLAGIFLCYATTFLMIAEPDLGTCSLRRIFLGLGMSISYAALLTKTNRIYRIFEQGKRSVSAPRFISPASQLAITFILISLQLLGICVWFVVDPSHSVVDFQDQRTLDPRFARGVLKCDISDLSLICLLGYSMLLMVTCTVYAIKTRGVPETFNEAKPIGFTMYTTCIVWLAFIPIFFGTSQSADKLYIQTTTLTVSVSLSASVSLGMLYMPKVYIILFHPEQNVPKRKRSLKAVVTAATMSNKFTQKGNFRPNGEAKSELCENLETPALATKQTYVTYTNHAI

Antagonist activity in rat mGlu4 thallium flux assay: confirmed to be active
Compound: O=C(COc1ccccc1Br)c1ccc(Cl)nc1 [2e]
